Measured values reported in patent US6852726B2, “Substituted indoles as alpha-1 agonists” (Syntex LLC, priority 2002, dated 2005).

Assays:
[1] = target: T1, alpha-1A adrenoceptors expressed in CHO-K1 cells (clone 13) (Homo sapiens, UniProt P35348); assay: Functional assay for alpha-1A/L agonist activity (FLIPR, Fluo-3 intracellular calcium); type: cell-based; conditions: for IA (intrinsic activity): maximum response relative to full agonist norepinephrine bitartrate, CHO-K1 alpha-1A cells
T1 construct: expressed in transfected cells; host or cells: CHO-K1 (clone 13)
T1 sequence (P35348 1-466): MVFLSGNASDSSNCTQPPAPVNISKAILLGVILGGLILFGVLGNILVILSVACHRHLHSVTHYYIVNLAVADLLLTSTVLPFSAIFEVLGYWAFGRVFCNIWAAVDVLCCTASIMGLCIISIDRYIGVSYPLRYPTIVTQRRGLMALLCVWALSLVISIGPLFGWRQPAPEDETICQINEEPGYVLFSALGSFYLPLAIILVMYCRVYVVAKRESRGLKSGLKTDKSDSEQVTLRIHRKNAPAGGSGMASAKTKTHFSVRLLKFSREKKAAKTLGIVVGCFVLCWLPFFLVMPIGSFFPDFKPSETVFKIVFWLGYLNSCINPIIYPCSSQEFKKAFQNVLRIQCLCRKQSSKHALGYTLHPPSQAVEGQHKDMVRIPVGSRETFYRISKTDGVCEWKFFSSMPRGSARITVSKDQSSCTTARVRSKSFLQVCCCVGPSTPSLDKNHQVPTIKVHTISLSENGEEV
Text: The inhibitory activity of compounds of this invention in vitro was examined using fluorescent dye determination of intracellular calcium concentrations as described in Example 6.
Functional Assay for Alpha-1A/L Agonist Activity
The inhibitory activity of compounds of this invention in vitro was examined using fluorescent dye determination of intracellular calcium concentrations.
Chinese hamster ovary cells CHO-K1 expressing the alpha-1A adrenoceptors (clone 13) are washed 4 times (approx. 300 μL/well) with fluorometric imaging plate reader (FLIPR) buffer (Hank's buffered saline solution (HBSS), 2 mM CaCl2, 10 mM HEPES, 2,5 mM probenecid, 100 μM ascorbic acid), with a final volume of 150 μL/well. Cells are loaded with 50 μL/well of 8 μM Fluo-3 AM (Molecular Probes, Eugene, Oreg.), for a final concentration of 2 μM Fluo-3 AM. Cells are then incubated for 60 min at 37° C. Following dye loading, cells are washed 4 times (approx. 300 μL/well) with FLIPR buffer with a final volume of 150 μL/well.
The Test compound, control compound and reference compound are run in quadruplicate, 8-point curves on each plate with a final assay concentration range of 10^−4M to 10^−11M for each compound. All compounds are dissolved in DMSO at 10 mM, and serially diluted in FLIPR buffer.
The assay plate is placed in the FLIPR incubation chamber and a baseline fluorescence measurement (excitation @ 488 nm and emission @ 510-570 nm) is obtained (15 sec interval). An experimental run is then commenced. The reaction is started with the addition of 50 μL/well (at 4× final concentration) of test, control, or reference compound solution from the agonist plate to the assay plate to all 96 wells simultaneously. Fluorescence is measured for 120 sec at 1 sec intervals. Then, a second addition of 5 μM ionomycin (50 μL/well from 5× concentration ionomycin plate) is added to the assay plate. Fluorescence is measured for 30 sec at 1 sec intervals. All experiments are conducted at room temperature.
For each assay plate, responses (increase in peak fluorescence) in each well following addition of agonist (test, control and reference) are determined. These responses may be expressed as raw CFU (Corrected Fluorescence Units), as a % maximum ionomycin response or other unit as determined by the investigator.
For test compound, control compound (Noerepinephrine (NE) bitartrate), and reference compound, the concentration producing a 50% increase in control response (EC50) is determined using iterative curve-fitting methods. Excel spreadsheet or Kaleidagraph software are used to fit data to the general logistic function (E=B+Emax·A^nH/A^nH+EC50^nH), where B is the corrected baseline fluorescence units (defined as zero), A is the concentration of agonist added and nH is the Hill slope (constrained to unity). EC50 values and maxima (Emax) for each curve can be estimated objectively using this software.
In addition the intrinsic activity (α) is determined. Intrinsic activity is defined as the maximum response to test agonist divided by the maximum response to a full agonist acting through the same receptor. For these experiments, the full agonist is defined as Norepinephrine (NE) bitartrate (control).

[2] = CHO-K1 cells expressing alpha-1A adrenoceptors, FLIPR calcium fluorescence, room temperature

In the case of “6-Bromo-1-(4,5-dihydro-1H-imidazol-2-ylmethyl)-1H-indole-3-carboxylic acid dimethylamide [Example 17]”, the pEC50 [1, 2] is reported as 8.34 and the “IA (intrinsic activity)” value [1] is reported as 1.02.
In the case of `Cc1c(S(C)(=O)=O)c2c(S(C)(=O)=O)cccc2n1CC1=NCCN1` [1-(4,5-Dihydro-1H-imidazol-2-ylmethyl)-3,4-bis-methanesulfonyl-2-methyl-1H-indole], the EC50 [1, 2] is reported as 1050 nM and the “IA (intrinsic activity)” value [1] is reported as 1.04.
With `Cc1c(S(C)(=O)=O)c2ccc(S(C)(=O)=O)cc2n1CC1=NCCN1` [1-(4,5-Dihydro-1H-imidazol-2-ylmethyl)-3,6-bis-methanesulfonyl-2-methyl-1H-indole] the EC50 [1, 2] was 60300 nM and the “IA (intrinsic activity)” value [1] was 0.18.
In the case of `CS(=O)(=O)c1cn(CC2=NCCN2)c2ccccc12` [1-(4,5-Dihydro-1H-imidazol-2-ylmethyl)-3-methanesulfonyl-1H-indole], the EC50 [1, 2] is reported as 2.29 nM and the “IA (intrinsic activity)” value [1] is reported as 1.07.
In the case of `Cc1c(S(C)(=O)=O)c2ccccc2n1CC1=NCCN1` [1-(4,5-Dihydro-1H-imidazol-2-ylmethyl)-3-methanesulfonyl-2-methyl-1H-indole], the EC50 [1, 2] is reported as 0.832 nM and the “IA (intrinsic activity)” value [1] is reported as 1.00.
For `Cc1c(S(C)(=O)=O)c2cccc(C(F)(F)F)c2n1CC1=NCCN1` [1-(4,5-Dihydro-1H-imidazol-2-ylmethyl)-3-methanesulfonyl-2-methyl-7-trifluoromethyl-1H-indole], the EC50 [1, 2] was 141 nM and the “IA (intrinsic activity)” value [1] was 0.96.
For `COc1ccc2c(S(C)(=O)=O)c(C)n(CC3=NCCN3)c2c1` [1-(4,5-Dihydro-1H-imidazol-2-ylmethyl)-3-methanesulfonyl-6-methoxy-2-methyl-1H-indole], the EC50 [1, 2] was 10 nM and the “IA (intrinsic activity)” value [1] was 1.05.
In the case of `Cc1ccc2c(c1)c(S(C)(=O)=O)c(C)n2CC1=NCCN1.Cl` [1-(4,5-Dihydro-1Hmidazol-2-ylmethyl)-3-methanesulfonyl-2,5-dimethyl-1H-indole], the EC50 [1, 2] is reported as 23.4 nM and the “IA (intrinsic activity)” value [1] is reported as 0.93.
For `CN(C)S(=O)(=O)c1cn(CC2=NCCN2)c2cc(Cl)ccc12` [6-Chloro-1-(4,5-dihydro-1H-imidazol-2-ylmethyl)-1H-indole-3-sulfonic acid dimethylamide], the EC50 [1, 2] was 9.12 nM and the “IA (intrinsic activity)” value [1] was 1.00.
For `Cc1c(S(C)(=O)=O)c2cccc(Cl)c2n1CC1=NCCN1` [Example 4, 7-Chloro-1-(4,5-dihydro-1H-imidazol-2-ylmethyl)-3-methanesulfonyl-2-methyl-1H-indole], the melting point was 221 to 223 °C.
